In data set [1] the target is Sodium channel protein type 9 subunit alpha (Homo sapiens, UniProt Q15858). The data set is described as follows: Inhibition of Nav1.7 by cell based whole-cell voltage clamp electrophysiology assay.
Data set [2] has as its target Sodium channel protein type 5 subunit alpha (Homo sapiens, UniProt Q14524). The data set is described as follows: Inhibition of Nav1.5 by cell based whole-cell voltage clamp electrophysiology assay.
Data set [3] addresses Voltage-gated inwardly rectifying potassium channel KCNH2 (Homo sapiens, UniProt Q12809). Put plainly: Inhibition of human ERG.
The nature of data set [4]: Solubility of the compound. Format: physicochemical.
The nature of data set [5]: Intrinsic clearance in rat liver microsomes. It counts as ADME, Microsome.
Data set [6] can be described thus: Intrinsic clearance in human liver microsomes. It counts as ADME, Microsome.
The subject of data set [7] is Rattus norvegicus. The data set is described as follows: Dose normalized AUC in Sprague-Dawley rat at 3 umol/kg, iv. To be noted: in vivo. It counts as ADME, organism-based.
A short description of data set [8]: Volume of distribution at steady state in Sprague-Dawley rat at 3 umol/kg, iv. Format: ADME, organism-based. The following applies: in vivo, read-out: Vdss.
Data set [9] is described as follows: Terminal half life in Sprague-Dawley rat at 3 umol/kg, iv. It counts as ADME, organism-based. The following applies: in vivo, read-out: beta t1/2 (converted).
The nature of data set [10]: Clearance in Sprague-Dawley rat at 3 umol/kg, iv. It counts as ADME, organism-based. To be noted: in vivo.
Data set [11] relates to Rattus norvegicus. Put plainly: Dose normalized AUC in Sprague-Dawley rat at 10 umol/kg, po. It counts as ADME, organism-based. The following applies: in vivo.
Data set [12] in a line: Cmax in Sprague-Dawley rat at 10 umol/kg, po. Format: ADME, organism-based. Also noted: dose 10 umol/kg, route oral. To be noted: in vivo.
Data set [13] is described as follows: Tmax in Sprague-Dawley rat at 10 umol/kg, po. It counts as ADME, organism-based. The following applies: in vivo.
The nature of data set [14]: Half life in Sprague-Dawley rat at 10 umol/kg, po. It counts as ADME, organism-based. The following applies: in vivo.
Data set [15] is described as follows: Oral bioavailability in Sprague-Dawley rat at 10 umol/kg. Format: ADME, organism-based. To be noted: in vivo.

The results in this text go back to ChEMBL document CHEMBL1795246, “Phenyl isoxazole voltage-gated sodium channel blockers: structure and activity relationship” (Bioorg Med Chem Lett, 2011).

In brackets after ≈: the same amount, converted by molar mass. A value given as a limit tells only on which side of the number the result lay.

Sequence of Sodium channel protein type 5 subunit alpha (Q14524 whole entry): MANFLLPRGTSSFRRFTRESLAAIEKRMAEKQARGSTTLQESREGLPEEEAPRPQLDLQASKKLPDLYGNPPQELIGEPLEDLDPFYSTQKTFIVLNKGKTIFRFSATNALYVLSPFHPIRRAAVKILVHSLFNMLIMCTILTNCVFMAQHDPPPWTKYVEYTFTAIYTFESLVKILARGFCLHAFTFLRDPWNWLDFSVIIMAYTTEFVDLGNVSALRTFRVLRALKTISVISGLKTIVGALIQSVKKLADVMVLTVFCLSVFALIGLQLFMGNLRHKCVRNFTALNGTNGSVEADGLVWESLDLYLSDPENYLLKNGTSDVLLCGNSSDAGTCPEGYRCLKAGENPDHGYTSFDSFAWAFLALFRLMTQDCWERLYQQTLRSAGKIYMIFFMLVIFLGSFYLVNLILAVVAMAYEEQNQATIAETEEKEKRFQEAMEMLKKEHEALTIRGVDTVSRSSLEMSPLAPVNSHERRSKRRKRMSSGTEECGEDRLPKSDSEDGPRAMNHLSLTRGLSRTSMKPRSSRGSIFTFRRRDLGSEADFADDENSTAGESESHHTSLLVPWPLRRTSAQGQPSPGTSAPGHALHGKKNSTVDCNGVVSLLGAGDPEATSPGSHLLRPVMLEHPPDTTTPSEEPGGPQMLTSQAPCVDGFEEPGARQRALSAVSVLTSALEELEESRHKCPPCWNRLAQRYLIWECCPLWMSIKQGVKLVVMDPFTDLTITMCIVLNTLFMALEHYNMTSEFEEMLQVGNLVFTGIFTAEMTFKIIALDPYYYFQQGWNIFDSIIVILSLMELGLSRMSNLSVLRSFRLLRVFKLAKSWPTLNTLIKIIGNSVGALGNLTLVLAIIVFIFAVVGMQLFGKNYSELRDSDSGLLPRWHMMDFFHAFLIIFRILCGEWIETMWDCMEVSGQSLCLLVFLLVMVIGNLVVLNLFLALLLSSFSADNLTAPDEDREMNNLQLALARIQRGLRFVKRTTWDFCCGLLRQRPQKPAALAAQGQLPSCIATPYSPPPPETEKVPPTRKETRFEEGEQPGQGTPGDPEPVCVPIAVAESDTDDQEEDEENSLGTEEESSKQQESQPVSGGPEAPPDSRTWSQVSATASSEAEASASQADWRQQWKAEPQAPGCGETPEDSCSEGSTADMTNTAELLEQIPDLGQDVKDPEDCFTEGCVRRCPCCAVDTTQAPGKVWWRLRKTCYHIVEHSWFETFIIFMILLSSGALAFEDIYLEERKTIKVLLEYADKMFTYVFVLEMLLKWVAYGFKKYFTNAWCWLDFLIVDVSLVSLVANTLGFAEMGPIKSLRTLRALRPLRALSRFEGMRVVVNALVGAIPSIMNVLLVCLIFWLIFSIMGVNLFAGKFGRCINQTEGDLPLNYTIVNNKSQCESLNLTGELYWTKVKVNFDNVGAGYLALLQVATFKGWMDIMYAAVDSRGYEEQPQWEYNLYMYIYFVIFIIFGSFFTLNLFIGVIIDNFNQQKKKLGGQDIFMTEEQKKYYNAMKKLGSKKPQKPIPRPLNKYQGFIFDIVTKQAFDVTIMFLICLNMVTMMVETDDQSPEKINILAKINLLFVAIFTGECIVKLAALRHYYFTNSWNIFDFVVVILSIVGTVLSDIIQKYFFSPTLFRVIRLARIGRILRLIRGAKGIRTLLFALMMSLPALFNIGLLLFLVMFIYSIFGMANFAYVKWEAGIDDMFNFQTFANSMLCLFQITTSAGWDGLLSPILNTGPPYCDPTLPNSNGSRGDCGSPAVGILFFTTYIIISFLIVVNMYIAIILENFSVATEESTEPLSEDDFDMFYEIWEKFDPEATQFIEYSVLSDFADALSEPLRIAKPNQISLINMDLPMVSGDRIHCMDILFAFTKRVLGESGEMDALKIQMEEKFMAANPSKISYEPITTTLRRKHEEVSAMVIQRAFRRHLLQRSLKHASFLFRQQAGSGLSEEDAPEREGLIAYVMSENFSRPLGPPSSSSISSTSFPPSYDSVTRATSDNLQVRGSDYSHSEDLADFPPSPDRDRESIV
Sequence of Sodium channel protein type 9 subunit alpha (Q15858 whole entry): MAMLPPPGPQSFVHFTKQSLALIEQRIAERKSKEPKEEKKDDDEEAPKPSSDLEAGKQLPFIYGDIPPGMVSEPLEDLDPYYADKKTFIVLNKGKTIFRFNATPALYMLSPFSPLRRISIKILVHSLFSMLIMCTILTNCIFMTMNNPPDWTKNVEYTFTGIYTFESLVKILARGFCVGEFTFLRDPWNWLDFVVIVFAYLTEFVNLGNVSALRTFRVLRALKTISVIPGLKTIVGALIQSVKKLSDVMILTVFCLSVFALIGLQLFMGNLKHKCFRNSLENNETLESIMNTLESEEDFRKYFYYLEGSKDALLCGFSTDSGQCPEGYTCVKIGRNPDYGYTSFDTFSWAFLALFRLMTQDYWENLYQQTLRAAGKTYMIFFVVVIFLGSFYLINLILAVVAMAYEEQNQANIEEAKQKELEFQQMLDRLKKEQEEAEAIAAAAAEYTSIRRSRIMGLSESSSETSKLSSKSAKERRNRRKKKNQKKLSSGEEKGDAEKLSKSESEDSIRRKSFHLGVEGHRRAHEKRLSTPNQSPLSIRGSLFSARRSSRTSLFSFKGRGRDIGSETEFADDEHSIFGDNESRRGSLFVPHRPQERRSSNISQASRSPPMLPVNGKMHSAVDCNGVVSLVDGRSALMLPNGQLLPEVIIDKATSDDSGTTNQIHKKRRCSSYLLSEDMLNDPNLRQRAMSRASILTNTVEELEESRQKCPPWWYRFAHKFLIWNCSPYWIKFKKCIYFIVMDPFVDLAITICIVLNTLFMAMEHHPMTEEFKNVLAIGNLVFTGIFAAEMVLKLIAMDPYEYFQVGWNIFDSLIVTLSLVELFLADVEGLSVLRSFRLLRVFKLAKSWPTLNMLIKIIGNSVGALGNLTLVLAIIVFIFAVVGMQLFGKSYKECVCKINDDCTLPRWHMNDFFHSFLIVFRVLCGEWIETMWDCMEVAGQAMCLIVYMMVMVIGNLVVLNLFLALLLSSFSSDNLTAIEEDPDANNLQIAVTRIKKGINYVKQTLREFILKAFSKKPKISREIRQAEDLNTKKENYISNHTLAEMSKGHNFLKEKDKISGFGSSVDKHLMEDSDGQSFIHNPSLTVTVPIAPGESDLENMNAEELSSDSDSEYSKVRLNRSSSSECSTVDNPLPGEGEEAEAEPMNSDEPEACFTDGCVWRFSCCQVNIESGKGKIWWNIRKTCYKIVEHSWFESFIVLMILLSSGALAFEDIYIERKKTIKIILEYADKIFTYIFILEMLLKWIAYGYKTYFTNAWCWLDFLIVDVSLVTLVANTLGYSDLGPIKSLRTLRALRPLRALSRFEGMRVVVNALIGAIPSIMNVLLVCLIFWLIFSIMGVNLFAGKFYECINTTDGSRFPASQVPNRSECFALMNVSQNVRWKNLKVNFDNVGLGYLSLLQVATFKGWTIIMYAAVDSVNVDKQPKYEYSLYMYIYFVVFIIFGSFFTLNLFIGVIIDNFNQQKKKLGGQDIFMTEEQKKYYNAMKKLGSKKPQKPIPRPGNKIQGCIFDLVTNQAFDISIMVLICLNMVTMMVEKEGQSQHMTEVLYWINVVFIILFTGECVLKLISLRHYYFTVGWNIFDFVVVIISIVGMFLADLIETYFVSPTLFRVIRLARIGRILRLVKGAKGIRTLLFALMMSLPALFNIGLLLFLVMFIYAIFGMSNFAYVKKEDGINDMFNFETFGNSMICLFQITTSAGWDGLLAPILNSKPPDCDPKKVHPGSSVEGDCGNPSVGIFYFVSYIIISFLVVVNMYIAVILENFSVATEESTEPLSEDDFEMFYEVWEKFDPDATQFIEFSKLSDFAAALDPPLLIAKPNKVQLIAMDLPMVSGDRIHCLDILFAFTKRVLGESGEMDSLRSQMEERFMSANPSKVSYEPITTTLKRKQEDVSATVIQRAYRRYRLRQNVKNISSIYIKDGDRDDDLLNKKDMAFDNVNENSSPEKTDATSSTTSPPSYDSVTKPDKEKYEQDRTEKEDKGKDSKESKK
Sequence of Voltage-gated inwardly rectifying potassium channel KCNH2 (Q12809 whole entry): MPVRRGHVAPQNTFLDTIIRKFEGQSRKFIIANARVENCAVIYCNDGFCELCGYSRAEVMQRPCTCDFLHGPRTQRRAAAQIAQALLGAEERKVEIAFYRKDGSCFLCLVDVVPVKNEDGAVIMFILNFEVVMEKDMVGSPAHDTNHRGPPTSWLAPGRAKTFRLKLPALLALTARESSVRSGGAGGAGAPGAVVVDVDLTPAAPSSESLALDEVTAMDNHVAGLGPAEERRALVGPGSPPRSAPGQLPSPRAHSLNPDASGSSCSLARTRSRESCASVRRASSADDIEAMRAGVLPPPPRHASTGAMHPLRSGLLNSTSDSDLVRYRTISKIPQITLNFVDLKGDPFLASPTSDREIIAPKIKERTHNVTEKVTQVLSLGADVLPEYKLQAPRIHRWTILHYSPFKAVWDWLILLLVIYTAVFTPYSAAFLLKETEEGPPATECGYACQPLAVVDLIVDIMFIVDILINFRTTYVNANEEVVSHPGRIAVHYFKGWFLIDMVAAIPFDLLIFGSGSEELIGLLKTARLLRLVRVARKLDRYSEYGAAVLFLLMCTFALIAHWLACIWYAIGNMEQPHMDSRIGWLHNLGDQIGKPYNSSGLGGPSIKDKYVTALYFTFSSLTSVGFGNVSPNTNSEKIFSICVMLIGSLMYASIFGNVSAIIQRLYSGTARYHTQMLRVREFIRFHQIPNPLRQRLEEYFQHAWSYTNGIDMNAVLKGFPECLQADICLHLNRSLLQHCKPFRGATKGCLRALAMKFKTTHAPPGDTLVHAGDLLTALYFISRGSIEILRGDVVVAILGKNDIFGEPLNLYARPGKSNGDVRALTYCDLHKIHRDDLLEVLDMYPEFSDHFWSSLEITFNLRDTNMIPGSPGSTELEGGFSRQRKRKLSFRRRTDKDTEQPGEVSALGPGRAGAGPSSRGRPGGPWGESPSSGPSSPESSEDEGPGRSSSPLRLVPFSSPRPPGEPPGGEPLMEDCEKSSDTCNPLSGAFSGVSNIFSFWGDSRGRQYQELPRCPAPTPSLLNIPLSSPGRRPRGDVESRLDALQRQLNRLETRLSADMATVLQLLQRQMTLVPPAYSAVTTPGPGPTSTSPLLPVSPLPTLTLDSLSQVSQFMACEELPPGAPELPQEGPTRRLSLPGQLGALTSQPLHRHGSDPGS

Take `CCc1onc(-c2c(Cl)cccc2Cl)c1NC(=O)OCc1c(F)cccc1Cl`: the IC50 in [1] was 0.00933 µM; in [2], 7.24 µM.
Taken in the same sequence, the figures for `Cc1onc(-c2c(Cl)cccc2Cl)c1CC(=O)NCc1ccc(-n2cccn2)cc1` were 0.851 µM and more than 33.1 µM.
Taken in the same sequence, the figures for `Cc1onc(-c2c(Cl)cccc2Cl)c1NC(=O)OCc1cc(Cl)ccc1Cl` were 0.138 µM and 2.63 µM.
Taken in the same sequence, the figures for `Cc1cccc(C)c1-c1noc(C)c1CC(=O)NCc1cccc(OCCOCC(F)(F)F)n1` were 0.0589 µM and 12 µM.
Regarding `COCc1onc(-c2c(Cl)cccc2Cl)c1NC(=O)OCc1ccccc1Cl`, the IC50 in data set [1] is 0.331 µM; in [2], more than 28.2 µM.
Taken in the same sequence, the figures for `Cc1onc(-c2c(Cl)cccc2Cl)c1CC(=O)NCc1ccc(OC(C)C)nc1` were 0.126 µM and 4.68 µM.
Taken in the same sequence, the figures for `Cc1cccc(C)c1-c1noc(C)c1N(C)C(=O)NCc1ccc(OC2CCOCC2)nc1` were 4.47 µM and more than 33.1 µM.
Taken in the same sequence, the figures for `Cc1onc(-c2c(Cl)cccc2Cl)c1NC(=O)NCc1ccc(-n2cccn2)cc1` were 0.263 µM and more than 33.1 µM.
Regarding `Cc1onc(-c2c(F)cccc2Cl)c1NC(=O)OCc1c(F)cccc1Cl`, the IC50 was 0.0724 µM in [1] and more than 15.8 µM in [2].
Taken in the same sequence, the figures for `Cc1cccc(C)c1-c1noc(C)c1NC(=O)NCc1ccc(-n2cccn2)cc1` were 1.17 µM and more than 33.1 µM.
Taken in the same sequence, the figures for `Cc1onc(-c2c(Cl)cccc2Cl)c1NC(=O)OCc1cccc(N(C)C)c1` were 0.151 µM and more than 25.7 µM.
The compound `O=C(Nc1conc1-c1c(Cl)cccc1Cl)OCc1c(F)cccc1Cl` showed a half-inhibitory concentration (IC50) in [1] of 12.6 µM. This counts as double-digit micromolar.
With `Cc1onc(-c2c(Cl)cccc2Cl)c1NC(=O)OCc1ccc(OC2CCCC2)nc1`, the results for the IC50 in data set [1] and in [2] were 0.0288 µM and 1.35 µM, respectively.
Taken in the same sequence, the figures for `Cc1onc(-c2c(Cl)cccc2Cl)c1NC(=O)NCc1c(F)cccc1Cl` were 0.162 µM and 8.51 µM.
Taken in the same sequence, the figures for `Cc1onc(-c2ccccc2Cl)c1N(C)C(=O)NCc1ccc(OC2CCOCC2)nc1` were 3.63 µM and more than 33.1 µM.
For the compound `Cc1cccc(C)c1-c1noc(C)c1CC(=O)NCc1ccc(OCC(F)(F)F)nc1`, the IC50 in data set [1] was 1.23 µM; in data set [2], more than 33.1 µM.
Taken in the same sequence, the figures for `Cc1onc(-c2c(Cl)cccc2Cl)c1N(C)C(=O)OCc1ccc(OC(C)C)nc1` were 0.224 µM and more than 28.8 µM.
Taken in the same sequence, the figures for `Cc1onc(-c2c(Cl)cncc2Cl)c1NC(=O)NCc1ccc(OC(C)C)nc1` were 12.6 µM and more than 33.1 µM.
With `Cc1onc(-c2c(Cl)cccc2Cl)c1CC(=O)NCc1ccc(OCC(F)(F)F)nc1`, the values for the IC50 in [1], in data set [2] and in data set [3] were 0.178 µM, more than 33.1 µM and more than 26.3 µM, respectively. Besides, the concentration in solution in data set [4] (solubility) came to 36 µM (≈ 17.1 µg/mL). Besides, the values for the microsomal CLint in data set [5] and in [6] were 64 µL/min/mg and 116 µL/min/mg, respectively. Further, the results for the AUC/dose in [7] and in [11] were 0.46 kg·h/L and 0.12 kg·h/L, respectively. Moreover, the Vd in data set [8] stood at 1.6 L/kg. In addition, the half-life in data set [9] was 36 min; in data set [14], 228 min. The compound also gave a clearance in data set [10] of 36 mL/min/kg. For the same compound, the Cmax in data set [12] was found to be 400 nM. Further, the Tmax in data set [13] came out at 18 min. Also, the bioavailability in data set [15] came out at 19%.
With `Cc1onc(-c2c(Cl)cccc2Cl)c1NC(=O)OCc1ccccc1Cl`, the IC50 in data set [1] was 0.024 µM; in data set [2], 8.71 µM.
Taken in the same sequence, the figures for `Cc1onc(-c2c(Cl)cccc2Cl)c1NC(=O)OCc1ccc(OC(C)C)nc1` were 0.0229 µM and 8.71 µM.
Taken in the same sequence, the figures for `Cc1cccc(C)c1-c1noc(C)c1NC(=O)NCc1c(F)cccc1Cl` were 0.038 µM and more than 10.5 µM.
Taken in the same sequence, the figures for `Cc1onc(-c2c(Cl)cccc2Cl)c1N(C)C(=O)NCc1ccc(OC2CCOCC2)nc1` were 0.17 µM and 5.89 µM.
Turning to `Cc1onc(-c2c(Cl)cccc2Cl)c1NC(=O)OCc1c(F)cccc1Cl`, the IC50 in [1] was 0.0282 µM; in [2] it was 5.5 µM; in [3] it was more than 26.3 µM. Also, the solubility in data set [4] was less than 1 µM. Besides, the AUC/dose in [7] stood at 0.73 kg·h/L; in data set [11], 0.001 kg·h/L. Further, in data set [8], the Vd was 3 L/kg. For the same compound, the half-life in data set [9] is 84 min. The same compound yielded a clearance in data set [10] of 45 mL/min/kg. The Cmax in data set [12] is 7 nM. The Tmax in [13] amounted to 19.8 min. This compound also gave a bioavailability in [15] of 0.3%.
For the compound `Cc1cccc(C)c1-c1noc(C)c1NC(=O)NCc1ccc(OC(C)C)nc1`, the IC50 in data set [1] was 0.209 µM; in data set [2], 20 µM.
Taken in the same sequence, the figures for `Cc1onc(-c2c(Cl)cccc2Cl)c1N(C)C(=O)OCc1c(F)cccc1Cl` were 0.302 µM and more than 33.1 µM.
Taken in the same sequence, the figures for `Cc1cccc(C)c1-c1noc(C)c1NC(=O)OCc1c(F)cccc1Cl` were 0.0105 µM and 7.76 µM.
